In patent US6245521A, “Assay for evaluating the affinity of compounds to the glutamate GluR5 receptor” (Eli Lilly and Company, priority 1999, dated 2001):

Columns and labels:
[1] = system: CA1 pyramidal neurons; assay: Electrophysiological test of synaptic transmission in the hippocampus; assay type: cell-based; conditions: ATPA 1 μM
Description: As mentioned above, ATPA modulates synaptic transmission in the hippocampus. […] It is further believed that such selective modulation of GluR5 is likely to show benefits in the treatment of cognitive function.

[2] = target: T1, human GluR4 (Homo sapiens, UniProt P48058); assay: Electrophysiological (patch-clamp) functional studies on transfected HEK293 cells; assay type: cell-based; conditions: vs 100 mμ AMPA
T1 construct: expressed in transfected cells; host or cells: HEK293
T1 sequence (P48058 21-902): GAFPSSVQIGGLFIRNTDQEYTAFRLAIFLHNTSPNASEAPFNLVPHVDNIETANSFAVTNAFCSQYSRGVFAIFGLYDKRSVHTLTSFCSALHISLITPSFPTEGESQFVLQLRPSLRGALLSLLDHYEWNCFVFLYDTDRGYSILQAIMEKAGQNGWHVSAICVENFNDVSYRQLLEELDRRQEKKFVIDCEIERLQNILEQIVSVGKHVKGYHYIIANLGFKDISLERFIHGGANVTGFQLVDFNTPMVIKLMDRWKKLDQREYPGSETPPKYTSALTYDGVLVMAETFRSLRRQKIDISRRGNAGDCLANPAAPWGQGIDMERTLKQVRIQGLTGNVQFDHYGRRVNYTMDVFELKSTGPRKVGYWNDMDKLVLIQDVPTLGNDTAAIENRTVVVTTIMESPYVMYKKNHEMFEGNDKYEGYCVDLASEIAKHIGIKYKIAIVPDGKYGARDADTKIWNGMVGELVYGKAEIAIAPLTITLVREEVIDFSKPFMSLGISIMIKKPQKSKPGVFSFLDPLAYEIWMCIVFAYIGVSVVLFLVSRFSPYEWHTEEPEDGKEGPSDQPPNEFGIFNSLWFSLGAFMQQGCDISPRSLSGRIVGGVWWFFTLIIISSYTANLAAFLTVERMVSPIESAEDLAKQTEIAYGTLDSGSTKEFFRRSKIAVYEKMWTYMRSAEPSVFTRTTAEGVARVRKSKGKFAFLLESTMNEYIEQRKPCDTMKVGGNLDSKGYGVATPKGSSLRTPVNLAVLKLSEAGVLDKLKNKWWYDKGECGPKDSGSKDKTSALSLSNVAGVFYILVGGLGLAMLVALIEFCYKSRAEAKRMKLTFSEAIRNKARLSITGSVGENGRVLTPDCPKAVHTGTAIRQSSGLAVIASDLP
Experimental: (§1) Activity of compounds acting at the kainate receptor, GluR5, can be determined by radiolabeled ligand binding studies at the cloned and expressed human GluR5 receptor (Korczak et al., 1994, Recept. Channels 3; 41-49), and by whole cell voltage clamp electrophysiological recordings of currents in acutely isolated rat dorsal root ganglion neurons (Bleakman et al., 1996, Mol. Pharmacol. 49; 581-585). The selectivity of compounds acting at GluR5 receptors is determined by measurement of activity at other AMPA and kainate receptors including receptor-ligand binding studies and whole-cell voltage clamp electrophysiological recordings of functional activity at human GluR1-GluR4 receptors (Fletcher et al., 1995, Recept. Channels 3; 21-31), at human GluR6 receptors (Hoo et al., Recept. Channels 2;327-338), at AMPA receptors in acutely isolated cerebellar Purkinje neurons (Bleakman et al., 1996, Mol. Pharmacol. 49; 581-585), and other tissues expressing AMPA receptors (Fletcher and Lodge, 1996, Pharmacol. Ther. 70; 65-89).
(§2) Functional studies were carried out on HEK293 cells stably transfected with human GluR receptors and on acutely isolated dorsal root ganglion neurons (DRG) using patch-clamp technology (Bleakman et al., 1996, Mol. Pharmacol., 49, 581-585).

[3] = target: T2, human GluR5 (Homo sapiens, UniProt P39086); assay: as above; assay type: cell-based
T2 construct: expressed in transfected cells; host or cells: HEK293
T2 sequence (P39086 31-905 isoform P39086-2 limits assumed): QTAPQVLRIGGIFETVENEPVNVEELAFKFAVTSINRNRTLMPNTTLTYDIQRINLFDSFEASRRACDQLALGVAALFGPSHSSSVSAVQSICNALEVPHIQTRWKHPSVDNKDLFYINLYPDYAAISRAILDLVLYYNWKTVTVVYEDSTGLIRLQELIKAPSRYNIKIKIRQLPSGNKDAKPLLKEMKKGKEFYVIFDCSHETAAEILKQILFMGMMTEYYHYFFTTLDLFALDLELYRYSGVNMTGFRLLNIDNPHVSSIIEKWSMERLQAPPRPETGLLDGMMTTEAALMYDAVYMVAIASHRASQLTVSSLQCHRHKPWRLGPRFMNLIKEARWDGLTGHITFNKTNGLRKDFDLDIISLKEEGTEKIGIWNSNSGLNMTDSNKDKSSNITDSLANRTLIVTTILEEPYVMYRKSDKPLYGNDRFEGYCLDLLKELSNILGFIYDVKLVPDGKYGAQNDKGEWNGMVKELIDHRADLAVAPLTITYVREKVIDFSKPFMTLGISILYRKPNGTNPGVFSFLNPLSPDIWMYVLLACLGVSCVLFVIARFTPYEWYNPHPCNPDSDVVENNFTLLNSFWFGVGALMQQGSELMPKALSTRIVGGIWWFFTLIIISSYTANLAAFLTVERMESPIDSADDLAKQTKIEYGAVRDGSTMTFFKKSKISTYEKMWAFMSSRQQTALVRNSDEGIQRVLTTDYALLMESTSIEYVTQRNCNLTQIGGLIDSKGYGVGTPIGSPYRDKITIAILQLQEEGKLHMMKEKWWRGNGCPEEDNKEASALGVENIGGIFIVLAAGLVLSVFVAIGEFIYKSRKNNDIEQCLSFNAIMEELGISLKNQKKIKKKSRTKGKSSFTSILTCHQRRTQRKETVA
Experimental: as §1, §2

[4] = target: T3, human GluR2 (Homo sapiens, UniProt P42262); assay: as above; assay type: cell-based; conditions: vs 100 mμ AMPA
T3 construct: expressed in transfected cells; host or cells: HEK293
T3 sequence (P42262 25-883): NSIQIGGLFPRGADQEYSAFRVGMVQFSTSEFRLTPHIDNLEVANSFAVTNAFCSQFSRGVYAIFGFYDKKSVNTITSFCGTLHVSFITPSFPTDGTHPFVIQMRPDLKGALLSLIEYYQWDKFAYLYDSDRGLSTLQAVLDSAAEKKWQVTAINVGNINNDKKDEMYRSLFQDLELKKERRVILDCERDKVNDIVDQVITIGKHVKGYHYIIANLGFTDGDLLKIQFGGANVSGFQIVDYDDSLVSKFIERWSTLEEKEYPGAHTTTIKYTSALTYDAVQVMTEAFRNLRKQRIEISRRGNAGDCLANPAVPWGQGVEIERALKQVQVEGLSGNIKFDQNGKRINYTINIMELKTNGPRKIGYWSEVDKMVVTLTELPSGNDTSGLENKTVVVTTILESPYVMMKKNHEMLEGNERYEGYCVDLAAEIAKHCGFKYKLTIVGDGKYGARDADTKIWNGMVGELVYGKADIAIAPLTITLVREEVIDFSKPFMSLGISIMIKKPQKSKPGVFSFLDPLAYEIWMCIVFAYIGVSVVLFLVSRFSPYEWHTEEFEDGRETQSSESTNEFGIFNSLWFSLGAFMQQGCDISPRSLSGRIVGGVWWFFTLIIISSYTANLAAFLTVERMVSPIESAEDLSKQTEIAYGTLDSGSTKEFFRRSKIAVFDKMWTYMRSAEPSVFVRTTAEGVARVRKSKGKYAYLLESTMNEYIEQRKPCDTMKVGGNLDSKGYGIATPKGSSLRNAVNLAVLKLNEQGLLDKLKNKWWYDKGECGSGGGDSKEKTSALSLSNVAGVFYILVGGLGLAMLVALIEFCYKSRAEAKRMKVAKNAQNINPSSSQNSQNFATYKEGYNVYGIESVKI
Experimental: as §1, §2

[5] = target: T4, human GluR1 (Homo sapiens, UniProt P42261); assay: ATPA selectivity profile in binding studies, displacement of 3[H] AMPA; conditions: HEK293 cells stably transfected with human GluR1
T4 construct: expressed in transfected cells; host or cells: HEK293
T4 sequence (P42261 19-906): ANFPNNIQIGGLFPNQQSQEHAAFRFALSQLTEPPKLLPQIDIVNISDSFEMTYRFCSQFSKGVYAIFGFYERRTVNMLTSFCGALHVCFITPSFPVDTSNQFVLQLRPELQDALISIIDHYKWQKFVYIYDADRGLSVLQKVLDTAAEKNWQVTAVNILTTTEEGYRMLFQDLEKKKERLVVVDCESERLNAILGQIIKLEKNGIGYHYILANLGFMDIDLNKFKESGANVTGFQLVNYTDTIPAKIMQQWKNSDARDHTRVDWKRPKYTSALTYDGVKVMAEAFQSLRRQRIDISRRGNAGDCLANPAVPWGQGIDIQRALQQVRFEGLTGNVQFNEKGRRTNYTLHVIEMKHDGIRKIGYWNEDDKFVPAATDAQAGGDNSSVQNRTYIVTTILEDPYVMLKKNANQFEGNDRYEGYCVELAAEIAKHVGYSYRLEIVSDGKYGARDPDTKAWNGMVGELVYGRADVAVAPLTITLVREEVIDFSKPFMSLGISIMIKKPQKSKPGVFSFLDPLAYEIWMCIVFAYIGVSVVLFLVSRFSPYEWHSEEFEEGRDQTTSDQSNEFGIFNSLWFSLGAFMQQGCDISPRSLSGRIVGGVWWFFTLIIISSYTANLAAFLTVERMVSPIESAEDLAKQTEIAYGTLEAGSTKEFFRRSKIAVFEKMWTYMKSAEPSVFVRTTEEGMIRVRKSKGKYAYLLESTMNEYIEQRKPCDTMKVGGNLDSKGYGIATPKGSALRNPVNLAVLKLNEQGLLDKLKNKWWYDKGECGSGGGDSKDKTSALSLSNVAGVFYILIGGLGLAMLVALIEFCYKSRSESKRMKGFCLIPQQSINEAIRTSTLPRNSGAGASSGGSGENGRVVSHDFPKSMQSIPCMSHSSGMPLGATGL
Experimental: as §1
(§3) Cell lines (HEK293 cells) stably transfected with human GluR receptors were employed. Displacement of ^3 [H] AMPA by increasing concentrations of ATPA was used on GluR1-4-expressing cells and ^3 [H] kainate (KA) on GluR5, 6, 7 KA2-expressing cells. Estimated activity (Ki) in nM was as follows.

[6] = target: T2, human GluR5; assay: ATPA selectivity profile in binding studies, displacement of 3[H] kainate
Experimental: as §1
(§4) Cell lines (HEK293 cells) stably transfected with human GluR receptors were employed. Displacement of ^3 [H] AMPA by increasing concentrations of ATPA was used on GluR1-4-expressing cells and ^3 [H] kainate (KA) on GluR5, 6, 7 KA2-expressing cells.

[7] = target: T5, human GluR6 (Homo sapiens, UniProt Q13002); assay: as above; conditions: HEK293 cells stably transfected with human GluR6
T5 construct: expressed in transfected cells; host or cells: HEK293
T5 sequence (Q13002 32-908): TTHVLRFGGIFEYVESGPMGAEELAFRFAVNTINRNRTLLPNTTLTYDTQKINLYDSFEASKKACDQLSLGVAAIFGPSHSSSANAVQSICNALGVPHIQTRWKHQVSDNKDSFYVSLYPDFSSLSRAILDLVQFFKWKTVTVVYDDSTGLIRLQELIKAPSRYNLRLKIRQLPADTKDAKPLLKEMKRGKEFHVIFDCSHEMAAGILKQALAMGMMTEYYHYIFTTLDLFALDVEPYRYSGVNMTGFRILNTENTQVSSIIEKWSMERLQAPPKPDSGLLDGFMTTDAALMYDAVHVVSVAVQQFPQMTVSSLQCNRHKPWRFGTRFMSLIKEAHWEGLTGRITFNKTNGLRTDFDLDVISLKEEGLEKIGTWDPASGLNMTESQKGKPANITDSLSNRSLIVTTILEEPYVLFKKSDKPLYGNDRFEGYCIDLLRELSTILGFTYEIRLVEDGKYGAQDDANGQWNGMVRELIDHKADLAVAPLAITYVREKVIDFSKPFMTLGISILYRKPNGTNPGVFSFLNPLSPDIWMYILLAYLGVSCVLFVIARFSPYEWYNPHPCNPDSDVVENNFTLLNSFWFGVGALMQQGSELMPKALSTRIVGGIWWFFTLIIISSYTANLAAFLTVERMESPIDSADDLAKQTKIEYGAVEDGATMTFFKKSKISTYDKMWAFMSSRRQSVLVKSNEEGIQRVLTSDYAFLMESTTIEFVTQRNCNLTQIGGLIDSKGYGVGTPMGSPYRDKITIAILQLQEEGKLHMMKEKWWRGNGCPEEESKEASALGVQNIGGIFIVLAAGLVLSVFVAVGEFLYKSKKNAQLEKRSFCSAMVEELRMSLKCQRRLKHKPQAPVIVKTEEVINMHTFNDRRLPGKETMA
Experimental: as §1, §3

[8] = target: T6, human GluR7 (Homo sapiens, UniProt Q13003); assay: as above; conditions: HEK293 cells stably transfected with human GluR7
T6 construct: expressed in transfected cells; host or cells: HEK293
Experimental: as §1, §3

[9] = target: T7, human KA2 (Homo sapiens, UniProt Q16478); assay: as above; conditions: HEK293 cells stably transfected with human KA2
T7 construct: expressed in transfected cells; host or cells: HEK293
T7 sequence (Q16478 15-980): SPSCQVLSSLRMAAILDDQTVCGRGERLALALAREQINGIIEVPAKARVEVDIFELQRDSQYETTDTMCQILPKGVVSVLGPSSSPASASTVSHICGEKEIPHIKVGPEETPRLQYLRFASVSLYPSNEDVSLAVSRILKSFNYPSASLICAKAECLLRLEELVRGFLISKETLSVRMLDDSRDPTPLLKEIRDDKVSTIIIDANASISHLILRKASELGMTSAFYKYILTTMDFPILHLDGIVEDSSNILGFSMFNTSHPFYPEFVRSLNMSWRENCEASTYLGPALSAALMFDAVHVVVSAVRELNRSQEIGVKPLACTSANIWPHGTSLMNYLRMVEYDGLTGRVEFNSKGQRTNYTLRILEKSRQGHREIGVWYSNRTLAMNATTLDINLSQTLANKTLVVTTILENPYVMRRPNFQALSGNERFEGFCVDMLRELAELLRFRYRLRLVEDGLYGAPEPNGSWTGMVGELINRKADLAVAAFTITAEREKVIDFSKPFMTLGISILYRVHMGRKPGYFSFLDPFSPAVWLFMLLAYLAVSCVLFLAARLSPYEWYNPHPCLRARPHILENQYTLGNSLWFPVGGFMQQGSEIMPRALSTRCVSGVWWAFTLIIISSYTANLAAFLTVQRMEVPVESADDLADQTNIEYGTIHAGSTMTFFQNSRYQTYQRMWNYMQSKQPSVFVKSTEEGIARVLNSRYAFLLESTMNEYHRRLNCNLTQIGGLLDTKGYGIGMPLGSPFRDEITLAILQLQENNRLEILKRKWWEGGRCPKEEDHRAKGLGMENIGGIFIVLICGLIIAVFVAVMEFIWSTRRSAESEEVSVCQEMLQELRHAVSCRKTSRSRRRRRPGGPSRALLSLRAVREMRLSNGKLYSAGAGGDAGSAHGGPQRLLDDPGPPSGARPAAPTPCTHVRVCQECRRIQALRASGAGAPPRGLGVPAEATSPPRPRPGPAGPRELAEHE
Experimental: as §1, §3

[10] = target: T4, human GluR1; assay: Electrophysiological (patch-clamp) functional studies on transfected HEK293 cells; assay type: cell-based; conditions: vs 100 mμ AMPA
Experimental: as §1
as §2, with “581-585). EC50 values (mμ) for ATPA were estimated for GluR1-4 vs 100 mμAMPA, GluR5 vs 100 mμ KA, GluR6 vs 1 mμ KA, and DRG vs 30 mμ KA, with the following results: […]” for “581-585).”

[11] = target: T5, human GluR6; assay: as above; assay type: cell-based; conditions: vs 1 mμ KA
Experimental: as §1
as §2, with “581-585). EC50 values (mμ) for ATPA were estimated for GluR1-4 vs 100 mμAMPA, GluR5 vs 100 mμ KA, GluR6 vs 1 mμ KA, and DRG vs 30 mμ KA, with the following results: […]” for “581-585).”

[12] = target: T8, human GluR3 (Homo sapiens, UniProt P42263); assay: as above; assay type: cell-based; conditions: vs 100 mμ AMPA
T8 construct: expressed in transfected cells; host or cells: HEK293
Experimental: as §1
as §2, with “581-585). EC50 values (mμ) for ATPA were estimated for GluR1-4 vs 100 mμAMPA, GluR5 vs 100 mμ KA, GluR6 vs 1 mμ KA, and DRG vs 30 mμ KA, with the following results: […]” for “581-585).”

[13] = target: T1, human GluR4; assay: ATPA selectivity profile in binding studies, displacement of 3[H] AMPA; conditions: HEK293 cells stably transfected with human GluR4
Experimental: as §1, §4

[14] = target: T3, human GluR2; assay: as above; conditions: HEK293 cells stably transfected with human GluR2
Experimental: as §1, §4

[15] = system: dorsal root ganglion neurons (DRG); assay: Patch-clamp functional studies on acutely isolated dorsal root ganglion neurons; assay type: cell-based; conditions: Rattus norvegicus, Neuron, vs 30 mμ KA
Experimental: as §1
Functional studies were carried out on HEK293 cells stably transfected with human GluR receptors and on acutely isolated dorsal root ganglion neurons (DRG) using patch-clamp technology (Bleakman et al., 1996, Mol. Pharmacol., 49, 581-585). […]

With `CC(C)(C)c1onc(O)c1CC(N)C(=O)O` (centres unmarked) [ATPA, 2-amino-3-(3-hydroxy-5-tert-butylisoxazol-4-yl)propanoic acid] the “effect on synaptic inhibition onto CA1 pyramidal neurons” value [1] was “reduces synaptic inhibition onto CA1 pyramidal neurons”, the EC50 [2] was over 300 µM and the EC50 ([3]; HEK293 cells, human GluR5, patch-clamp, vs 100 mμ KA) was 4 ± 0.7 µM. For the same compound, the “fold less potent on other human AMPA and kainate receptors than on human GluR5 and rat DRG neurons in electrophysiological studies” value ([3]; electrophysiological studies, GluR5 and rat DRG neurons vs other human AMPA and kainate receptors) was 100 fold, the EC50 [4] was over 300 µM and the “Estimated activity (Ki) GluR1” value [5] was 17.59 µM. For the same compound, the “Estimated activity (Ki) GluR5” value ([6]; HEK293 cells stably transfected with human GluR5, displacement of 3[H] kainate) was 0.0031 µM, the “fold less potent on other human AMPA and kainate receptors than on human GluR5 in binding studies” value ([6]; binding studies, GluR5 vs other human AMPA and kainate receptors) was “more than 1000 fold” and the “Estimated activity (Ki) GluR6” value [7] was over 1000 µM. For the same compound, the “Estimated activity (Ki) GluR7” value [8] was 14.319 µM, the “Estimated activity (Ki) KA2” value [9] was 38.832 µM and the EC50 [10] was over 300 µM. For the same compound, the EC50 [11] was over 300 µM, the EC50 [12] was over 300 µM and the “Estimated activity (Ki) GluR4” value [13] was 15.747 µM. For the same compound, the “Estimated activity (Ki) GluR2” value [14] was 38.616 µM and the EC50 [15] was 0.56 µM.
